The text below walks through data of paper PMC8355692, “Antimelanoma activities of chimeric thiazole–androstenone derivatives” (Royal Society Open Science, 2021).

One series relates to LOX IMVI. The series can be described thus: NCI DTP 60 cell line five-concentration test, melanoma panel. It is filed as cell-based. Conditions: for LC50 (50% lethal concentration) / GI50: Homo sapiens; for LC50 (50% lethal concentration): LOX IMVI, read-out: LC50 (50% lethal concentration); for GI50 / TGI (total growth inhibition): LOX IMVI melanoma cell line. The procedure:
(§1) In our effort to develop new methodologies to synthesize bioactive compounds [11–14], we have synthesized a number of thiazole and thiazolo-androstenone derivatives. We submitted 50 of the synthesized thiazole–androstenone derivatives to the National Cancer Institute (NCI) Development Therapeutics Program (DTP) to test against 60 cancer cell lines (https://dtp.cancer.gov/). These compounds were tested for cytotoxicity at a single dose of 10 µM. […] Eight of these chimeric compounds (figure 2) were selected for further testing at five different concentrations to determine 50% growth inhibition (GI50), total growth inhibition (TGI) and 50% lethal concentration (LC50) values. […] Overall, amino-thiazole derivatives (table 1, 1–7) were more toxic to melanoma cell lines than phenyl thiazole derivatives (8). Fluoro and oxy (hydroxy and methoxy) derivatives were the potent growth inhibitors of the tested cancer cell lines. LOX IMVI cell line was the most susceptible among all the melanoma cell lines used against the tested compounds (table 1). […] Phenyl ethyl derivative (1) inhibited the growth of all the cell lines except SK-MEL-2. […] 2,4-Dimethyl substituted derivative (7) is a potent growth inhibitor of all the tested cell lines of the melanoma panel.

Another series has as its system SK-MEL-28. The series is described as above. It is filed as cell-based. Conditions: for GI50 / CC50: Homo sapiens; for GI50: SK-MEL-28, SK-MEL-28 melanoma cell line; for CC50: SK-MEL-28, read-out: LC50 (50% lethal concentration); for TGI (total growth inhibition): SK-MEL-28 melanoma cell line. The procedure: as §1
A further series relates to MALME-3M. The description is as above. The settings on record: for CC50 / GI50: Homo sapiens; for CC50: Malme-3M, read-out: LC50 (50% lethal concentration); for GI50 / TGI (total growth inhibition): MALME-3M melanoma cell line. The series is classed as cell-based. The procedure:
as §1

In a further series the test system is MDA-MB-435. The series is described as above. Conditions: for CC50 / GI50: Homo sapiens; for CC50: MDA-MB-435, read-out: LC50 (50% lethal concentration); for GI50 / TGI (total growth inhibition): MDA-MB-435 melanoma cell line. The series is classed as cell-based. The procedure:
as §1

The test system of a further series is M14. The description is as above. The series is classed as cell-based. Conditions: for GI50 / CC50: Homo sapiens; for GI50: M14, M14 melanoma cell line; for CC50: M14, read-out: LC50 (50% lethal concentration); for TGI (total growth inhibition): M14 melanoma cell line. How it is done:
as §1

The subject of the next series is UACC-257. The description is as above. It is filed as cell-based. The settings on record: for CC50 / GI50: Homo sapiens; for CC50: UACC-257, read-out: LC50 (50% lethal concentration); for GI50 / TGI (total growth inhibition): UACC-257 melanoma cell line. How it is done:
as §1

The test system of the next series is SK-MEL-5. Described as above. It is filed as cell-based. The settings on record: for CC50 / GI50: Homo sapiens; for CC50: SK-MEL-5, read-out: LC50 (50% lethal concentration); for GI50 / TGI (total growth inhibition): SK-MEL-5 melanoma cell line. The procedure:
as §1

Another series relates to SK-MEL-2. The series is described as above. The series is classed as cell-based. The settings on record: for LC50 (50% lethal concentration) / GI50: Homo sapiens; for LC50 (50% lethal concentration): SK-MEL-2, read-out: LC50 (50% lethal concentration); for GI50 / TGI (total growth inhibition): SK-MEL-2 melanoma cell line. The procedure:
as §1

Another series deals with UACC-62. The description is as above. It is filed as cell-based. Conditions: for GI50 / LC50 (50% lethal concentration): Homo sapiens; for GI50: UACC-62, UACC-62 melanoma cell line; for LC50 (50% lethal concentration): UACC-62, read-out: LC50 (50% lethal concentration); for TGI (total growth inhibition): UACC-62 melanoma cell line. How it is done: as §1
Series [1] can be described thus: Solubility in the growth media. The series is classed as physicochemical. The settings on record: growth media of the HFF-1 test.
Another series relates to melanoma panel. The series can be described thus: NCI DTP test, statements for the whole melanoma panel. It is filed as cell-based. How it is done: as §1
In another series the test system is melanoma cells. Put plainly: TUNEL staining for DNA fragmentation and irreversible cell death. The settings on record: 5 or 10 µM, 24 h. An excerpt:
Apoptosis is usually associated with profound DNA fragmentation that makes the cell death irreversible. DNA fragmentation could be due to the increasing of nuclear DNA access to apoptotic endonucleases and the induction of these enzymes. This DNA fragmentation is best measured by using the terminal deoxynucleotidyl transferase dUTP nick-end labelling (TUNEL) assay. […] Immunostaining for major marker of oxidative injury, heme oxygenase-1 (HO1) was done to determine whether the test compounds induce oxidative injury. […] Activation of endonucleases and their translocation to the nucleus is actually the last step when cell death becomes irreversible. It is often preceded by an oxidative cell injury that activates or aggravates the cell death mechanism. To measure whether our compounds induce oxidative injury, we chose to measure HO1 which is a well-established mechanistic marker of oxidative injury. Because HO1 is not a nuclear marker and it is not translocated to the nucleus and contact DNA during cell death, instead of colocalization by pixels, we counted the percentage of TUNEL-positive (dead) cells which are also HO1-positive (figure 5a). […] We next examined whether caspase-activated DNase (CAD), a known mechanistic marker of caspase-mediated apoptosis, is colocalized with TUNEL during cell death induced by dacarbazine or our test compounds (3, 4 and 5).
Figure 4. […]

The next series deals with heme oxygenase-1 (HO1). Put plainly: HO1 immunocytochemistry combined with TUNEL (oxidative injury). The series is classed as cell-based. Conditions: melanoma cells, 5 or 10 µM, 24 h. An excerpt: (§2) The elevation was dose-dependent.
(§3) Figure 4. […] (c) Representative images. […] Mean ± s.e.m., n = 4 per group.
(§4) Figure 5. […] (a) Representative images of TUNEL colocalized or not colocalized with each of the three protein markers used in this study. […] Mean ± s.e.m., n = 4 per group.
(§5) Thus, to determine the mechanism of action of our compounds on melanoma cells in vitro, we applied the fluorescent TUNEL assay combined with quantitative ICC for three markers: HO1 for oxidative cell injury, CAD for caspase-mediated apoptosis and EndoG for caspase-independent apoptosis. […] However, none of the compounds or dacarbazine induced apoptotic endonucleases. This is not surprising because apoptotic endonucleases are commonly present in the cell in sufficient amounts to be able to destroy DNA upon cell death without induction (which most likely would not be possible in a dead cell).

In a further series the test system is HFF-1 cell line. The series can be described thus: Toxicity for normal human foreskin fibroblast cell line. The series is classed as cell-based. Conditions: normal human foreskin fibroblast HFF-1. An excerpt:
To assess the potential use of lead compounds as anti-melanoma agents, we tested their toxicity for the normal human foreskin fibroblast (HFF-1) cell line taking into consideration that MM is usually surrounded by the cells of this kind. The effects of some of the potent compounds on this cell line were very encouraging (table 4).

Another series relates to endonuclease G (EndoG). The series can be described thus: EndoG immunocytochemistry combined with TUNEL (caspase-independent apoptosis). The series is classed as cell-based. Conditions: melanoma cells, 24 h.
Excerpt: as §2, §3, §4, §5

The test system of series [2] is caspase-activated DNase (CAD). The series can be described thus: CAD immunocytochemistry combined with TUNEL (caspase-mediated apoptosis). Conditions: melanoma cells, 5 or 10 µM, 24 h. It is filed as cell-based.
Excerpt: as §2, §3, §4, §5

In another series the test system is SK-MEL-28 cell line. Put plainly: Annexin V flow cytometry apoptosis assay. It is filed as cell-based. The settings on record: SK-MEL-28, 200 µM. How it is done:
After determining the selective toxicity of potent molecules, we determined their mode of action against the melanoma cell line. Apoptosis or programmed cell death is a physiological process to remove unwanted or damaged mammalian cells. We detected apoptosis mode of cell death by our potent compounds using flow cytometry-based Annexin V assay. Compound 3 caused 23% apoptosis at 6 µM and 54% apoptosis at 12 µM (figure 3). 3-Fluorophenyl derivative (5) was a very potent apoptosis-inducing agent that caused 100% cell death at 12 µM concentration. Dacarbazine, the positive control, caused 22% apoptotic cell death at 200 µM concentration.
Figure 3. Apoptosis measurements using Annexin V flow cytometry assay of compounds 3 and 5 against SK-MEL-28 cell line at 6 and 12 µM concentrations. DMSO and dacarbazine (Daca) are negative and positive controls, respectively. Mean ± s.e.m., n = 3 per group.

In general, GI50 refers to the concentration giving 50% growth inhibition. Low readings indicate more potent growth inhibition, high ones less potent growth inhibition. As for `C[C@]12CCc3nc(-c4cccc(F)c4)sc3C1=CC[C@@H]1[C@@H]2CC[C@]2(C)C(=O)CC[C@@H]12` [Compound 8], the LC50 (50% lethal concentration) with LOX IMVI is 6.47 µM; in the series with SK-MEL-2, > 100 µM; in the series on UACC-62 it was 37.3 µM. Further, the GI50 came out at 1.74 µM in the series with LOX IMVI; 1.53 µM in the series with SK-MEL-28; 1.8 µM in the series on MALME-3M; 2.97 µM with MDA-MB-435; 6.62 µM in the series on M14; 6.12 µM with UACC-257. For the same molecule, the GI50 worked out at 4.05 µM with SK-MEL-5, 2.74 µM in the series on SK-MEL-2 and 1.9 µM in the series on UACC-62. Besides, the “TGI (total growth inhibition)” value is listed as 3.36 µM in the series with LOX IMVI; 4.07 µM in the series with SK-MEL-28; 4.13 µM with MALME-3M; >100 µM in the series with MDA-MB-435; >100 µM in the series with M14; >100 µM in the series on UACC-257. In addition, the “TGI (total growth inhibition)” value is on record as 16.9 µM in the series on SK-MEL-5, 10.7 µM with SK-MEL-2 and 5.70 µM with UACC-62. The CC50 in the series on SK-MEL-28 was > 100 µM; with MALME-3M, 9.48 µM; in the series on MDA-MB-435, > 100 µM; with M14, > 100 µM; with UACC-257 it was > 100 µM; in the series on SK-MEL-5, 65.1 µM. Further, the “solubility in the growth media” value in series [1] is “low solubility”.

Consider `C[C@]12CCc3nc(NCCc4ccccc4)sc3C1=CC[C@@H]1[C@@H]2CC[C@]2(C)C(=O)CC[C@@H]12` [Compound 1], for which the LC50 (50% lethal concentration) in the series with LOX IMVI is 5.91 µM; with SK-MEL-2 it was > 100 µM; in the series with UACC-62, > 100 µM. Also, the GI50 in the series with LOX IMVI was determined as 1.7 µM; with SK-MEL-28 it was 3.37 µM; in the series on MALME-3M, 2.18 µM; with MDA-MB-435, 3.01 µM; in the series with M14, 3.63 µM; in the series with UACC-257, 4.92 µM. In addition, the figures for the concentration for 50% growth inhibition (GI50) with SK-MEL-5, with SK-MEL-2 and with UACC-62 were 4.57 µM, 17 µM and 2.67 µM, respectively. The “TGI (total growth inhibition)” value in the series with LOX IMVI is on record as 3.17 µM; with SK-MEL-28, 18.9 µM; in the series on MALME-3M, 6.82 µM; with MDA-MB-435, >100 µM; in the series on M14, >100 µM; in the series on UACC-257, 79.8 µM. Besides, the “TGI (total growth inhibition)” value with SK-MEL-5 is 52.7 µM; with SK-MEL-2 it was >100 µM; in the series with UACC-62, 10.6 µM. The CC50 with SK-MEL-28, in the series with MALME-3M, with MDA-MB-435, with M14, in the series on UACC-257 and with SK-MEL-5 was > 100 µM each time. Moreover, the “solubility in the growth media” value in series [1] was “low solubility”.

For the molecule `C[C@]12CCc3nc(Nc4ccc(F)cc4F)sc3C1=CC[C@@H]1[C@@H]2CC[C@]2(C)C(=O)CC[C@@H]12` [Compound 6], in the series on melanoma panel, the “TGI values against the cell lines of the melanoma panel” value is “did not show any useful TGI values”. For the same molecule, the 50% growth inhibitory concentration (GI50) was 1.71 µM in the series on LOX IMVI; > 100 µM in the series on SK-MEL-28; > 100 µM in the series on MALME-3M; > 100 µM in the series with MDA-MB-435; > 100 µM with M14; > 100 µM with UACC-257. The concentration for 50% growth inhibition (GI50) with SK-MEL-5 was 1.88 µM; with SK-MEL-2, > 100 µM; in the series with UACC-62, > 100 µM.

By IC50 is commonly meant the midpoint of a concentration-inhibition curve. On to `CN(C)/N=N/c1[nH]cnc1C(N)=O` [dacarbazine, reference compound], for which the “cytotoxicity by TUNEL staining (TUNEL-positivity)” value in the series on melanoma cells is recorded as “negligent”. Further, the “HO1 staining in TUNEL-positive cells (oxidative injury)” value in the series with heme oxygenase-1 (HO1) is listed as “without induction of HO1”. Further, the “toxicity against HFF1 cells (in words)” value in the series on HFF-1 cell line is “did not show any notable toxicity”. Moreover, the IC50 in the series with HFF-1 cell line (read-out: IC50 against HFF1 cell line) was > 100 µM. Besides, the “EndoG overlap with TUNEL staining (caspase-independent apoptosis)” value with endonuclease G (EndoG) (5 µM) is recorded as “did not show any effect”. The “EndoG overlap with TUNEL staining (caspase-independent apoptosis)” value in the series on endonuclease G (EndoG) (10 µM) was “significant increase”. Besides, the EndoG mean intensity result with endonuclease G (EndoG) (5 or 10 µM) is recorded as “No significant induction”. In addition, in series [2], the CAD mean intensity result was “No significant induction” and the “colocalization of CAD with TUNEL (caspase-mediated apoptosis)” value was “did not induce any association of CAD with TUNEL”. This molecule also registered an apoptotic cell death in the series on SK-MEL-28 cell line of 22%.
